Patent publication US5159081A, “Intermediates of peripherally selective N-carbonyl-3,4,4-trisubstituted piperidine opioid antagonists” (Eli Lilly and Company, priority 1991, dated 1992)
Counter-ions that a name gives are not always drawn. Like-named read-outs stand apart in the source and are kept apart here.

Tests used:
[1] = tested on: peripheral opioid receptors; assay: mouse diarrhea test: precipitated diarrhea in morphine-maintained mice (peripheral opioid activity); format: in vivo
[2] = biological target: peripheral opioid receptors (Mus musculus, UniProt P42866); assay: as above; format: in vivo; details: mouse diarrhea test, morphine-maintained mice, subcutaneous or oral, 30 min observation
peripheral opioid receptors (Mus musculus, UniProt P42866), sequence (P42866 whole entry): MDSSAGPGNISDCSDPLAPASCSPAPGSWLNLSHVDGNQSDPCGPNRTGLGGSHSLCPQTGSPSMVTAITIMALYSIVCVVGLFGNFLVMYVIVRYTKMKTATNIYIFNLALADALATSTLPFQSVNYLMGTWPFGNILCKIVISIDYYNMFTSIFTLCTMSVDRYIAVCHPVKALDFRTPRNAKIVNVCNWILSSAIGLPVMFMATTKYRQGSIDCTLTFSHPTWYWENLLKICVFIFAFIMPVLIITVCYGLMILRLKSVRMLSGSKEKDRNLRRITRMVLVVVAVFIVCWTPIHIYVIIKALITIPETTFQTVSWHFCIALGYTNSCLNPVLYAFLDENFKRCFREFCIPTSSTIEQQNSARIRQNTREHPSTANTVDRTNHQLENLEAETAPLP

mu receptor = biological target: T1, mu receptor (Rattus norvegicus, UniProt P33535); assay: Naloxone [3H] opioid receptor binding assay (mu receptor); design: species or system rat (male Sprague Dawley); details: 20 min; for Ki: rat whole brain minus cerebellum, pH 7.4, 37° C., read-out: Ki
T1 construct: The brain tissue, rat whole brain minus cerebellum for mu was homogenized; from tissue; host or cells: brain minus cerebellum of male Sprague Dawley rats, homogenate fraction
T1 sequence (P33535 whole entry): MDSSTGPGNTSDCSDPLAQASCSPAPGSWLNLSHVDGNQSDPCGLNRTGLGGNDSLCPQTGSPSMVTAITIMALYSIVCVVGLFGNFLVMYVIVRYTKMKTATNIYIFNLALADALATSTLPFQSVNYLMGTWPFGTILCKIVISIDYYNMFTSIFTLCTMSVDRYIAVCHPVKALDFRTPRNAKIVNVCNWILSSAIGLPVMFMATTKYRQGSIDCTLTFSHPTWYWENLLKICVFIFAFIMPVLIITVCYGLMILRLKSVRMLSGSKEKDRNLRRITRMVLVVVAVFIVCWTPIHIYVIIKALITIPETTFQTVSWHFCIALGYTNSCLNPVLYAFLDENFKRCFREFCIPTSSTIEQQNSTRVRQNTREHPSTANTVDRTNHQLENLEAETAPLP

opioid receptor = biological target: T2, opioid receptor (Mus musculus, UniProt P42866); assay: in vivo; design: species or system CF-1 male mice; details: sc, mouse writhing test, s.c. 20 min before acetic acid, read-out: AD50 (the source's name)
T2 construct: Five CF-1 male mice (Charles River, Portage, MI); from tissue; host or cells: living CF-1 male mice (whole animal, endogenous receptor)
T2 sequence (P42866 whole entry): as the sequence (P42866 whole entry) above

[3] = pH 7.4, read-out: % displacement at 10 nM
[4] = pH 7.4, read-out: % displacement at 100 nM
[5] = AD50 mouse writhing / ED50 mouse diarrhea, higher = greater relative peripheral antagonism
[6] = pH 7.4, 10 nM test compound, [3H]naloxone 0.5 nM, mu receptor, read-out: % displacement at 10 nM
[7] = pH 7.4, 100 nM test compound, [3H]naloxone 0.5 nM, mu receptor, read-out: % displacement at 100 nM

SMILES	Ratio (ratio of AD50 to ED50) ([1]; mouse, in vivo)	ED50 [2] [mg/kg]	inhibition at 0.01 µM (mu receptor; [3]) [%]	inhibition at 0.1 µM (mu receptor; [4]) [%]	Ki (mu receptor; [3H]naloxone 0.5 nM) [nM]	ED50 (opioid receptor; […]) [mg/kg]	Ratio (ratio of AD50 to ED50) [1, 5]	ED50 ([2]; 0.5 h, read-out: ED50) [mg/kg]	inhibition at 0.01 µM (mu receptor; [6]) [%]	inhibition at 0.1 µM (mu receptor; [7]) [%]	ED50 (opioid receptor; dose of antagonist that reduced inhibition of writhing by 1.25 mg/kg morphine sulfate to 50%) [mg/kg]
C[C@H]1CN(CC(Cc2ccccc2)NC(=O)CCCC(=O)O)CC[C@@]1(C)c1cccc(O)c1 (relative stereo) [Example 15, Trans-5-((2-(4-(3-hydroxyphenyl)-3,4-dimethyl-1-piperidinyl)-1-(D-(phenylmethyl)ethyl)amino))-5-oxopentanoic acid monohydrate]	50	0.028	80	99	2.96	1.39	–	–	–	–	–
CCOC(=O)CCC(=O)NC(CCN1CC[C@@](C)(c2cccc(O)c2)[C@@H](C)C1)CC(C)C (single isomer, unassigned) [Example 2A, 4-[[1-[2-[4-(3-hydroxyphenyl)-3,4-dimethyl-1-piperidinyl]-ethyl]-3-methylbutyl)amino]-4-oxobutanoic acid ethyl ester]	–	0.29	98	100	0.64	8.4	29	–	–	–	–
CC1CN(C[C@H](CC2CCCCC2)NC(=O)CCCC(=O)O)CCC1(C)c1cccc(O)c1 (single isomer, unassigned; (+)) [Example 16]	–	0.12	97	100	0.96	> 20	> 166	–	–	–	–
COC1CCC(OC(=O)CCCC(=O)N[C@@H](CC2CCCCC2)CN2CC[C@@](C)(c3cccc(O)c3)[C@@H](C)C2)CC1 (some centres unmarked) [Example 68]	–	–	–	–	–	18.8	65	0.29	68	95	–
CC(=O)NC(CCCNC(=N)N[N+](=O)[O-])C(=O)NCCN1CCC(C)(c2cccc(O)c2)C(C)C1 (stereo not drawn) [Example 42, N-(2-(trans-4-(3-hydroxyphenyl)-3,4-dimethyl-1-piperidinyl)ethyl)-2-(acetylamino)-5-((imino(nitroamino)-methyl)amino)pentanamide monohydrate]	–	–	–	–	–	> 20	> 160	0.12	44	89	–
CC(C)COC(=O)CCCC(=O)N[C@@H](CC1CCCCC1)CN1CC[C@](C)(c2cccc(O)c2)[C@H](C)C1 [Example 55]	–	–	–	–	–	> 40	> 800	0.05	40	86	–
CC(C)COC(=O)CCCC(=O)N[C@@H](CC1CCCCC1)CN1CC[C@@](C)(c2cccc(O)c2)[C@@H](C)C1 [Example 56]	–	–	–	–	–	> 40	20000	0.002	61	92	–
CNC(=O)COC(=O)CCCC(=O)N[C@@H](CC1CCCCC1)CN1CC[C@@](C)(c2cccc(O)c2)[C@@H](C)C1 [Example 63]	–	0.003	87	99	2.13	12	4000	–	–	–	–
CC(C)CC(=O)NC(CCCNC(=N)N[N+](=O)[O-])C(=O)NCCN1CCC(C)(c2cccc(O)c2)C(C)C1 (stereo not drawn) [Example 43, Trans-N-(2-(4-(3-hydroxyphenyl)-3,4-dimethyl-1-piperidinyl)ethyl)-2-((3-methyl-1-oxobutyl)amino)-5-((imino(nitroamino)methyl)amino) pentanamide]	–	–	–	–	–	> 10	> 10	< 1	59	97	–
C[C@@H]1CN(C[C@@H](CC2CCCCC2)NC(=O)CCCC(=O)O)CC[C@]1(C)c1cccc(O)c1 [Example 48D]	–	0.05	30	78	–	> 40	> 800	–	–	–	–
C[C@H]1CN(C[C@H](CC2CCCCC2)NC(=O)CCCC(=O)OCC(N)=O)CC[C@@]1(C)c1cccc(O)c1 [Example 61]	–	0.13	88	97	2.86	22	169	–	–	–	–
C[C@H]1CN(C[C@@H](Cc2ccccc2)NC(=O)CC(=O)O)CC[C@@]1(C)c1cccc(O)c1 [Example 11, Trans-3-((2-(4-(3-hydroxyphenyl)-3,4-dimethyl-1-piperidinyl)-1-(D-(phenylmethyl)ethyl)amino))-3-oxopropionic acid]	–	–	–	–	–	12.4	41	0.3	36	80	–
C[C@H]1CN(CCN(C(=O)CCC(=O)O)c2ccccc2)CC[C@@]1(C)c1cccc(O)c1 (relative stereo) [Example 19, 4-((2-(Trans-4-(3-hydroxyphenyl)-3,4-dimethyl-1-piperidinyl)ethyl)phenylamino-4-oxobutanoic acid monohydrate]	–	–	–	–	–	6.3	77	0.082	48	92	–
C[C@H]1CN(CC(Cc2ccccc2)NC(=O)CCCNC(=O)OC(C)(C)C)CC[C@@]1(C)c1cccc(O)c1 (stereo partly drawn) [Example 18, Trans-(4-((1-((4-(3-hydroxyphenyl)-3,4-dimethyl-1-piperidinyl)methyl)-2-phenylethyl)amino)-4-oxobutyl) carbamic acid, 1,1 dimethylethyl ester monohydrochloride]	–	0.30	86	100	0.63	1.31	4.5	–	–	–	–
CCOC(=O)CC(=O)N[C@H](Cc1ccccc1)CN1CC[C@@](C)(c2cccc(O)c2)[C@@H](C)C1 [Example 10, Ethyl trans-(3R,4R,R)-3-((2-(4-(3-hydroxyphenyl)-3,4-dimethyl-1-piperidinyl)-1-(D-(phenylmethyl)ethyl)amino))-3-oxopropionate hydrochloride]	–	0.12	61	94	1.46	9.3	78	–	–	–	–
C[C@H]1CN(CCN(C(=O)CCC(=O)O)C2CCCC2)CC[C@@]1(C)c1cccc(O)c1 (relative stereo) [Example 24, 4-(cyclopentyl-2-(trans-4-(3-hydroxyphenyl)-3,4-dimethyl-1-piperidinyl)ethyl)amino)-4-oxobutanoic acid hemihydrate]	–	–	–	–	–	19.2	31	0.62	48	89	–
C[C@@H]1CN(C[C@@H](Cc2ccccc2)NC(=O)CC(=O)O)CC[C@]1(C)c1cccc(O)c1 [Example 13, Trans-3-((2-(4-(3-hydroxyphenyl)-3,4-dimethyl-1-piperidinyl)-1-(D-(phenylmethyl)ethyl)amino))-3-oxopropionic acid monohydrate]	–	–	–	–	–	> 40	> 138	0.29	24	72	–
CCOC(=O)CCCC(=O)N[C@@H](CC1CCCCC1)CN1CC[C@@](C)(c2cccc(O)c2)[C@@H](C)C1 [Example 52]	–	0.02	87	96	2.34	28	1400	–	–	–	–
COC(=O)CCCC(=O)N[C@@H](CC1CCCCC1)CN1CC[C@@](C)(c2cccc(O)c2)[C@@H](C)C1 [Example 50]	–	0.056	87	99	3.24	20	357	–	–	–	–
COC(=O)CCCC(=O)N[C@@H](CC1CCCCC1)CN1CC[C@](C)(c2cccc(O)c2)[C@H](C)C1 [Example 49]	–	> 10	83	97	8.19	9.9	–	–	–	–	–
C[C@H]1CN(CCC(CC2CCCCC2)NC(=O)CCCC(=O)O)CC[C@@]1(C)c1cccc(O)c1 (stereo in doubt) [Example 7, 5-((1-(cyclohexylmethyl)-3-(trans-4-(3-hydroxyphenyl)-3,4-dimethyl-1-piperidinyl)propyl)amino)-5-oxopentanoic acid monohydrochloride monohydrate]	–	–	99	100	0.63	8.62	19	–	–	–	–
C[C@H]1CN(CCN(C(=O)CCC(=O)O)C2CCCCC2)CC[C@@]1(C)c1cccc(O)c1 (relative stereo) [Example 22, 4-(Cyclohexyl-(2-(trans-4-(3-hydroxyphenyl)-3,4-dimethyl-1-piperidinyl)ethyl)amino)-4-oxobutanoic acid monohydrate]	–	–	51	93	3.59	–	63	–	–	–	1.25
